This is an account of results in patent US8163909B2, “Substituted hydroxyethyl amine compounds as beta-secretase modulators and methods of use” (Amgen Inc., priority 2007, dated 2012).

The target of one data set is CYP2D6 (Homo sapiens, UniProt P10635). As to the kind of experiment: CYP2D6 inhibition assay (bufuralol, pooled human liver microsomes). To be noted: 2D6 IC50 (uM), CYP enzyme inhibition.
A short description of data set [1]: Microsomal stability assay, human liver microsomes.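 Further: pooled human liver microsomes at 0.25 mg/mL with 1 µM compound and NADPH at 37 °C, pH 7.4, for 30 min, unchanged parent quantified by LC-MS/MS against the 0 min sample.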 The conditions noted are these: human liver microsomal data.
Data set [2] concerns the target Beta Secretase enzyme (BACE) (Homo sapiens, UniProt P56817). Description: In vitro enzymatic BACE FRET (fluorescence resonance energy transfer) assay.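 Further: fluorescence read after 1 h with 50 nM quenched peptide substrate spanning the BACE cleavage site, in pH 4.2 acetate buffer containing 10% DMSO and nonionic detergent.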 Format: biochemical. To be noted: BACE enzyme assay; read-out: BACE1 FRET assay.
A further data set concerns the target CYP3A4 (CYP3A) (Homo sapiens, UniProt P08684). Description: in vitro. The conditions noted are these: microsomes, pH 7.4.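 Further: inhibition of CYP3A-mediated 1-hydroxymidazolam formation after 10 min incubation with NADPH, quantified by HPLC MS relative to metabolite produced without test compound.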
Data set [3] is described as follows: Microsomal stability assay, rat liver microsomes.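 Further: rat liver microsomes (0.25 mg/mL) with about 1 µM compound plus 1 mM NADPH, pH 7.4, 37 °C for 30 min, parent left measured by LC-MS/MS against 0 min.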 The conditions noted are these: rat liver microsomal data.
For data set [4], the system named is Aβ40 in conditioned medium of cells stably expressing Amyloid Precursor Protein (APP). As to the kind of experiment: In vitro BACE cell-based assay (Aβ40 in conditioned medium, sandwich ELISA).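 Further: compounds added as a dilution series, secreted peptide quantified by europium time-resolved fluorescence readout, potency fitted from percent of control versus compound concentration.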 To be noted: Homo sapiens, HEK293, HEK cells; read-out: HEK cell assay.

CYP3A4 (CYP3A), sequence (P08684 2-503): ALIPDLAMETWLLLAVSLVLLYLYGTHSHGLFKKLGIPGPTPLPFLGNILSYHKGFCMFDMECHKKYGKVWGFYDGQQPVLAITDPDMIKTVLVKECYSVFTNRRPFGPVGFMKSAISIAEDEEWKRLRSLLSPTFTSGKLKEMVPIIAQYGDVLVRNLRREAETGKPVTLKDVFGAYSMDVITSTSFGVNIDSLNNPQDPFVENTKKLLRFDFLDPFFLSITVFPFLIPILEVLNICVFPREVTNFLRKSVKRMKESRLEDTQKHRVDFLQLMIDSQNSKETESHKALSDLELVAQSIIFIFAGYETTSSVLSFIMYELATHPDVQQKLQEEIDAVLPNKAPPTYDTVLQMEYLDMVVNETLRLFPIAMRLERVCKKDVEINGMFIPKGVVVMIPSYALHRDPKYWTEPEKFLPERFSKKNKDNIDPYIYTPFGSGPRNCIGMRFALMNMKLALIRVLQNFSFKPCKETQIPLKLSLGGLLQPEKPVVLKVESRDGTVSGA
CYP2D6, sequence (P10635 whole entry): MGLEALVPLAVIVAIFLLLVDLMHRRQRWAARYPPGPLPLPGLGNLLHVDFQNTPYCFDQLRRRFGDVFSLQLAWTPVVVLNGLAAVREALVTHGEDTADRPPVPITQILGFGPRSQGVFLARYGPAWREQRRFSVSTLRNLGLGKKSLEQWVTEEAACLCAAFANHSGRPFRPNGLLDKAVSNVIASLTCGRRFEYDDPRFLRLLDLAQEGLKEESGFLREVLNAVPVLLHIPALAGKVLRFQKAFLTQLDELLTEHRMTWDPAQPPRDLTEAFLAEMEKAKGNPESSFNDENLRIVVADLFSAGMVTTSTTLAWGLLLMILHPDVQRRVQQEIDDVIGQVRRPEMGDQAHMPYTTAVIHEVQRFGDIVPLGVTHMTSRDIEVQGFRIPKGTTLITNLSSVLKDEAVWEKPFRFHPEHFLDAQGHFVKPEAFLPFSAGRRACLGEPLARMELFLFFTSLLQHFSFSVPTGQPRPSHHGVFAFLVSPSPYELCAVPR
Beta Secretase enzyme (BACE), sequence (P56817 46-501): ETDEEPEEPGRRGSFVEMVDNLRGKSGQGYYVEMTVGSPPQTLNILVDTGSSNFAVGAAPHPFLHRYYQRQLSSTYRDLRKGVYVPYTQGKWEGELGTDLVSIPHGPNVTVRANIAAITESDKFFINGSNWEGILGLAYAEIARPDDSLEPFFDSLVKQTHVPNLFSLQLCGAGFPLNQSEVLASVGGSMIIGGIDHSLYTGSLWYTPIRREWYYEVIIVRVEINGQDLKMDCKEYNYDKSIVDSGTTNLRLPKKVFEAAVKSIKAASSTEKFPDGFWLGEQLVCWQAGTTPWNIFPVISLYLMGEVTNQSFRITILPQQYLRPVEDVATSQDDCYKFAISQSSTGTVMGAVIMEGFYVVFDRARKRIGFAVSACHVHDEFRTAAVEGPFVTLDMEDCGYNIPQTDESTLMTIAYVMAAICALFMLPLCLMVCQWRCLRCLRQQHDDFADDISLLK

In the case of `CC(C)(C)Cc1cnc2c(c1)[C@@H](NC[C@@H](O)[C@H](Cc1ccc3c(c1)OCO3)NC(=O)C1CCO1)CC1(CCC1)O2` (stereo partly drawn) [compound 503, N-((1S,2R)-1-(1,3-benzodioxol-5-ylmethyl)-3-(((4′S)-6′-(2,2-dimethylpropyl)-3′,4′-dihydrospiro[cyclobutane-1,2′-pyrano[2,3-b]pyridin]-4′-yl)amino)-2-hydroxypropyl)-2-oxetanecarboxamide], the IC50 against CYP2D6 amounted to 3.3 µM; in data set [2] it was 21 nM; against CYP3A4 (CYP3A) it was 200 nM; in data set [4], 17 nM. In addition, in data set [1], the “HLM” value came to 23 µL/min/mg. Moreover, the “RLM” value in data set [3] came to 130 µL/min/mg.

As to `COCC(=O)N[C@@H](Cc1cccc(F)c1)[C@H](O)CN[C@H]1CC2(CCC2)Oc2c1cc(CC(C)(C)C)cc2-n1ccnc1` [compound 505], the IC50 at CYP2D6 was 1.9 µM; in data set [2], 19 nM; against CYP3A4 (CYP3A) it was 100 nM; in data set [4], 6 nM. Further, the “HLM” value in data set [1] is 51.5 µL/min/mg. Further, the “RLM” value in data set [3] was found to be 153 µL/min/mg.

Take `CO[C@H](C)C(=O)N[C@@H](Cc1cccc(F)c1)[C@H](O)CN[C@H]1CC2(CCC2)Oc2c1cc(CC(C)(C)C)nc2-n1ccnc1` [compound 507]: the IC50 against CYP2D6 was determined as 1.9 µM; in data set [2] it was 22 nM; on CYP3A4 (CYP3A) it was 100 nM; in data set [4], 57 nM. Besides, the “HLM” value in data set [1] was 14 µL/min/mg. Moreover, the “RLM” value in data set [3] came out at 95 µL/min/mg.

`COCC(=O)N[C@@H](Cc1cc(F)cc(F)c1)[C@H](O)CN[C@H]1CC2(CCC2)Oc2c1cc(CC(C)(C)C)nc2-c1cnc[nH]1` [compound 508]: the IC50 was determined as 1.2 µM against CYP2D6, 24 nM in data set [2], 100 nM at CYP3A4 (CYP3A) and 5 nM in data set [4]. In addition, the “HLM” value in data set [1] worked out at 17 µL/min/mg. Further, the “RLM” value in data set [3] came out at 43 µL/min/mg.

Turning to `COCC(=O)N[C@@H](Cc1cc(F)cc(F)c1)[C@H](O)CN[C@@H]1CC2(CCC2)Oc2c1cc(CC(C)(C)C)nc2-c1cnc[nH]1` [compound 509], the IC50 at CYP2D6 amounted to 2.3 µM; in data set [2], 487 nM; on CYP3A4 (CYP3A), 100 nM; in data set [4] it was 77 nM. Further, the “HLM” value in data set [1] was 74 µL/min/mg. Further, in data set [3], the “RLM” value was 70 µL/min/mg.

Turning to `CC(=O)N[C@@H](Cc1cc(F)cc(F)c1)[C@H](O)CN[C@H]1CC2(CCC2)Oc2c1cc(CC(C)(C)C)nc2-c1cscn1` [compound 510], the IC50 was 10.3 µM at CYP2D6, 8 nM in data set [2], 1100 nM at CYP3A4 (CYP3A) and 17 nM in data set [4]. Further, the “HLM” value in data set [1] is 380 µL/min/mg. Further, the “RLM” value in data set [3] turned out to be 358 µL/min/mg.

`CO[C@H](C)C(=O)N[C@@H](Cc1cc(F)cc(F)c1)[C@H](O)CN[C@H]1CC2(CCC2)Oc2ncc(CC(C)(C)C#N)cc21` [compound 511]: the IC50 against CYP2D6 was 14.5 µM; in data set [2], 7 nM; on CYP3A4 (CYP3A) it was 2400 nM; in data set [4], 11 nM. Further, the “HLM” value in data set [1] was determined as 382 µL/min/mg. In addition, the “RLM” value in data set [3] came to 203 µL/min/mg.

`COCC(=O)N[C@@H](Cc1cccc(F)c1)[C@H](O)CN[C@H]1CC2(CCC2)Oc2ccc(C[C@H](C)F)cc21` [compound 512]: the IC50 at CYP2D6 was determined as 0.5 µM; in data set [2] it was 28 nM; at CYP3A4 (CYP3A), 5700 nM; in data set [4], 61 nM. Further, the “HLM” value in data set [1] stood at 614 µL/min/mg. Also, in data set [3], the “RLM” value is 829 µL/min/mg.

For the molecule `COCC(=O)N[C@@H](Cc1ccc(F)cc1)[C@H](O)CN[C@H]1CC2(CCC2)Oc2c(-c3cnc[nH]3)cc(CC(C)C)cc21` [compound 513], the IC50 against CYP2D6 was 2.5 µM; in data set [2], 88 nM; against CYP3A4 (CYP3A), 200 nM; in data set [4], 13 nM. In data set [1], the “HLM” value worked out at 143 µL/min/mg. For the same molecule, in data set [3], the “RLM” value was found to be 82 µL/min/mg.

Regarding `COCC(=O)N[C@@H](Cc1cccc(F)c1)[C@H](O)CN[C@H]1CC2(CCC2)Oc2c(Br)cc(CC(C)C)cc21` [compound 514], the IC50 against CYP2D6 amounted to 6 µM; in data set [2], 3 nM; on CYP3A4 (CYP3A), 1500 nM; in data set [4] it was 128 nM. Further, in data set [1], the “HLM” value worked out at 682 µL/min/mg. The “RLM” value in data set [3] is 560 µL/min/mg.

Turning to `CO[C@H](C)C(=O)N[C@@H](Cc1cccc(F)c1)[C@H](O)CN[C@H]1CC2(CCC2)Oc2c(Br)cc(CC(C)C)cc21` [compound 515], the IC50 at CYP2D6 amounted to 9.4 µM; in data set [2], 3 nM; at CYP3A4 (CYP3A), 1300 nM; in data set [4] it was 125 nM. In addition, the “HLM” value in data set [1] came out at 775 µL/min/mg. The “RLM” value in data set [3] was found to be 399 µL/min/mg.

As for `CC(=O)N[C@@H](Cc1ccc2c(c1)OCO2)[C@H](O)CN[C@H]1CC2(CCC2)Oc2ncc(CC(F)(F)F)cc21` [compound 517], the IC50 on CYP2D6 worked out at 7.8 µM; in data set [2] it was 178 nM; on CYP3A4 (CYP3A) it was 500 nM; in data set [4], 202 nM. For the same molecule, the “HLM” value in data set [1] stood at 32 µL/min/mg. Besides, in data set [3], the “RLM” value amounted to 51 µL/min/mg.

On to `COCC(=O)N[C@@H](Cc1ccc2c(c1)OCO2)[C@H](O)CN[C@H]1CC2(CCC2)Oc2ncc(CC(F)(F)F)cc21` [compound 518], for which the IC50 against CYP2D6 turned out to be 2.7 µM; in data set [2], 131 nM; against CYP3A4 (CYP3A) it was 300 nM; in data set [4] it was 340 nM. Besides, in data set [1], the “HLM” value is 26 µL/min/mg. Further, the “RLM” value in data set [3] was 82 µL/min/mg.

For `CO[C@H](C)C(=O)N[C@@H](Cc1ccc2c(c1)OCO2)[C@H](O)CN[C@H]1CC2(CCC2)Oc2ncc(CC(F)(F)F)cc21` [compound 519], the IC50 on CYP2D6 was 7.4 µM; in data set [2], 255 nM; against CYP3A4 (CYP3A), 300 nM; in data set [4] it was 810 nM. Moreover, in data set [1], the “HLM” value stood at 33 µL/min/mg. In addition, the “RLM” value in data set [3] was 71 µL/min/mg.

In the case of `COCC(=O)N[C@@H](Cc1cccc(F)c1)[C@H](O)CN[C@H]1CC2(CCC2)Oc2c1cc(CC(C)C)cc2-n1ccnc1` [compound 520], the IC50 stood at 0.9 µM against CYP2D6, 18 nM in data set [2], 100 nM at CYP3A4 (CYP3A) and 9 nM in data set [4]. In addition, the “HLM” value in data set [1] was determined as 32 µL/min/mg. For the same molecule, in data set [3], the “RLM” value stood at 144 µL/min/mg.

As for `CO[C@H](C)C(=O)N[C@@H](Cc1cccc(F)c1)[C@H](O)CN[C@H]1CC2(CCC2)Oc2c1cc(CC(C)(C)C)cc2-n1ccnc1` [compound 522], the IC50 against CYP2D6 worked out at 3.1 µM; in data set [2] it was 44 nM; at CYP3A4 (CYP3A), 100 nM; in data set [4], 13 nM. Moreover, in data set [1], the “HLM” value came out at 43 µL/min/mg. Moreover, in data set [3], the “RLM” value came to 141 µL/min/mg.

As to `CO[C@H](C)C(=O)N[C@@H](Cc1cccc(F)c1)[C@H](O)CN[C@H]1CC2(CCC2)Oc2c(-c3cscn3)cc(CC(C)C)cc21` [compound 524], the IC50 worked out at 7.5 µM on CYP2D6, 8 nM in data set [2], 500 nM at CYP3A4 (CYP3A) and 65 nM in data set [4]. For the same molecule, in data set [1], the “HLM” value was found to be 492 µL/min/mg. The “RLM” value in data set [3] was determined as 472 µL/min/mg.

For the molecule `CC(C)(C)Cc1cnc2c(c1)[C@@H](NC[C@@H](O)[C@H](Cc1ccc3c(c1)OCO3)NC(=O)[C@@H]1CCO1)CC1(CCC1)O2` [compound 525], the IC50 against CYP2D6 worked out at 3.1 µM; in data set [2], 21 nM; at CYP3A4 (CYP3A), 200 nM; in data set [4], 19 nM. In addition, the “HLM” value in data set [1] was 32 µL/min/mg. Further, the “RLM” value in data set [3] amounted to 101 µL/min/mg.

For the molecule `COCC(=O)N[C@@H](Cc1cccc(F)c1)[C@H](O)CN[C@H]1CC2(CCC2)Oc2c(-c3cscn3)cc(CC(C)C)cc21` [compound 526], the IC50 came to 7.3 µM on CYP2D6, 6 nM in data set [2], 600 nM on CYP3A4 (CYP3A) and 53 nM in data set [4]. Also, the “HLM” value in data set [1] was determined as 351 µL/min/mg. Moreover, the “RLM” value in data set [3] was 503 µL/min/mg.

Take `CO[C@H](C)C(=O)N[C@@H](Cc1ccc(F)cc1)[C@H](O)CN[C@H]1CC2(CCC2)Oc2c1cc(CC(C)(C)C)nc2-c1ccncc1` [compound 527]: the IC50 came to 0.6 µM against CYP2D6, 222 nM in data set [2], 100 nM at CYP3A4 (CYP3A) and 1950 nM in data set [4]. Further, in data set [1], the “HLM” value amounted to 33 µL/min/mg. Also, the “RLM” value in data set [3] came to 108 µL/min/mg.

With `COCC(=O)N[C@@H](Cc1cccc(F)c1)[C@H](O)CN[C@H]1CC2(CCC2)Oc2c1cc(CC(C)(C)C)nc2-c1ccncc1` [compound 531], the IC50 on CYP2D6 came out at 1.3 µM; in data set [2], 13 nM; on CYP3A4 (CYP3A), 200 nM; in data set [4], 29 nM. Further, the “HLM” value in data set [1] turned out to be 40 µL/min/mg. For the same molecule, the “RLM” value in data set [3] is 159 µL/min/mg.

`CC(=O)N[C@@H](Cc1cccc(F)c1)[C@H](O)CN[C@H]1CC2(CCC2)Oc2c1cc(CC(C)(C)C)nc2-c1ccncc1` [compound 532]: the IC50 at CYP2D6 turned out to be 2.6 µM; in data set [2], 12 nM; against CYP3A4 (CYP3A), 200 nM; in data set [4], 22 nM. The “HLM” value in data set [1] was found to be 40 µL/min/mg. In addition, the “RLM” value in data set [3] was determined as 91 µL/min/mg.

Take `CO[C@H](C)C(=O)N[C@@H](Cc1ccncc1)[C@H](O)CN[C@H]1CC2(CCC2)Oc2ncc(CC(C)(C)C)cc21` [compound 534]: the IC50 against CYP2D6 was found to be 3.6 µM; in data set [2], 23 nM; against CYP3A4 (CYP3A), 500 nM; in data set [4], 14 nM. Besides, the “HLM” value in data set [1] came to 178 µL/min/mg. In data set [3], the “RLM” value was found to be 113 µL/min/mg.
